These results are taken from US20160058771A1, “ALPHA-2 ADRENOCEPTOR AND SIGMA RECEPTOR LIGAND COMBINATIONS” (LABORATORIOS DEL DR. ESTEVE, S.A., priority 2013, published 2016).

“Also recorded” adds a separate entry of the source. Structures can show the parent of a compound that is named as a salt.

In experiment [1] the test system is male Swiss CD-1 mice. Nature of the experiment: Hot-plate test (50° C., latency to hind paw licking). The conditions noted are these: for analgesic effect (latency to hind paw licking): vs control, FIG. 6. It counts as in vivo. The source says: The hot plate is another classical test of acute thermal nociception. This test consists of introducing mice into an open-ended cylindrical space with a floor consisting of a metallic plate that is heated to a constant temperature. Typical behavioural responses in mice are paw-licking and jumping (Le Bars et al., 2001)
Male Swiss CD-1 mice weighing between 30 and 35 g (Charles River, Barcelona, Spain) were used for all the experiments. The drugs evaluated were the Sigma ligand Compound 63.HCl and the alpha-2 adrenergic agonists clonidine, guanfacine, and dexmedetomidine. Compound 63.HCl was injected intraperitoneally (i.p.) in a volume of 10 ml/kg in 0.5% hydroxypropyl methyl cellulose (HPMC), whereas clonidine, guanfacine and dexmedetomidine were administrated subcutaneously (s.c.) in saline, in a volume of 5 ml/kg. Control animals received the same volume of vehicle. The hot plate test was done 30 min after compound's administration. Mice were placed individually on the hot-plate at 50° C. and the reaction time starting from the placement of the mouse on the hot plate to the time of hind paw licking (HPL) was measured with a stopwatch. An independent untreated group of animals from each strain was used to evaluate the basal latencies and five times those values were chosen as the cut-off time to avoid tissue damage.
Data were expressed as means±S.E.M of the paw withdrawal latency (s).
(§1) In order to generate dose-response curves, raw data were converted to % maximum possible antinociceptive effect using the following equation:
(§2) % MPE=[(TL−VL)/(Cut off−VL)]·100
where MPE: maximum possible antinociceptive effect; TL: test latencies and VL: vehicle latency. 3.1. Effect of the Sigma Ligands Compound 63.HCl Alone or Combined with the Alpha-2 Agonist Clonidine
In general terms: Hot-plate and tail-flick tests time the reaction to a heat stimulus.

Experiment [2] concerns male Swiss CD-1 mice. Briefly: Tail-flick test (radiant heat, acute thermal pain). The experiment is classed as in vivo. On the procedure: Tail-flick test is a classical model of acute thermal pain (D'Amour and Smith, 1941) Pain sensitivity is measured in response to a radiant heat beam focused on the mouse tail. Latency to the first pain response is recorded as a measure of thermal pain sensitivity. The withdrawal is a classic nocifensive reflex that removes the body apart from the source of pain.
Male Swiss CD-1 mice weighing between 30 and 35 g (Charles River, Barcelona, Spain) were used for all the experiments. The drugs evaluated were compound 63.HCl and clonidine hydrochloride and guanfacine, as alpha-2 adrenergic agonists. Compound 63.HCl was injected intraperitoneally (i.p.) in a volume of 10 ml/kg in 0.5% hydroxypropyl methyl cellulose (HPMC) and clonidine or guanfacine were administered subcutaneously (s.c.) dissolved in isotonic saline (0.9% NaCl) solution, in a volume of 5 ml/kg. Control animals received the same volume of vehicle.
Antinociception was assessed using the radiant heat tail-flick test as described by Moncada et al., 2003. Briefly, the animals were restrained in a Plexiglas tube and placed on the tail-flick apparatus. The radiant heat source was focused on the proximal portion of the tail at about […] of the tip. Vehicle tail-flick latency (VL) was determined using a stimulus intensity adjusted to elicit a mean reaction time in the range of 2-4 s. Following vehicle or compound administration, test latencies (TL) were obtained at 30 min. A cut off time of 10 s was employed in order to prevent tissue damage. All experiments were performed under blind conditions.
Data were expressed as means±S.E.M of the […] (s.).
as §1, §2
where MPE: maximum possible antinociceptive effect; TL: test latencies and VL: vehicle latency. 2.1. Effects of the Compound 63.HCl Alone or Combined with the Alpha-2 Agonist Clonidine

As usually defined, the ED50 is the dose at which the effect has come halfway, by size or by number of responders. In the case of `Clc1cccc(Cl)c1N=C1NCCN1` [clonidine], the ED50 in the experiment with male Swiss CD-1 mice [1] (Mus musculus, clonidine alone, sc, 0.125-1 mg/kg, FIG. 5, read-out: ED50 (50% effective dose of clonidine)) turned out to be 0.3 mg/kg; with male Swiss CD-1 mice [2] (Mus musculus, clonidine alone, sc, 0.125-1 mg/kg, % MPE dose-response, FIG. 2, read-out: ED50 (50% effective dose of clonidine)), 0.18 mg/kg.
In the case of `Cc1cc(OCCN2CCOCC2)nn1-c1ccc2ccccc2c1` [compound 63.HCl, 4-{2-[5-methyl-1-(naphthalen-2-yl)-1H-pyrazol-3-yloxy]ethyl}morpholine hydrochloride], the “effect on the dose-response curve of clonidine” value in the experiment on male Swiss CD-1 mice [1] (Compound 63.HCl 40 mg/kg ip with clonidine 0.125-1 mg/kg sc, displacement to the left of the curve, FIG. 5) is “potentiated the antinociceptive effect of clonidine”; with male Swiss CD-1 mice [2] (compound 63.HCl 40 mg/kg ip with clonidine 0.125-1 mg/kg sc, displacement to the left of the curve, FIG. 2) it was “potentiates the antinociceptive effect of clonidine”. Further, in the experiment with male Swiss CD-1 mice [1] (Compound 63.HCl alone 40 mg/kg ip, 30 min before test, FIG. 4, FIG. 5, hydrochloride), the “antinociceptive effect (latency to hind paw licking)” value is “failed to produce a statistically significant antinociceptive effect; also recorded: showed no activity”. Also, the “antinociceptive effect (tail withdrawal latency)” value in the experiment with male Swiss CD-1 mice [2] (compound 63.HCl alone, 5, 10 and 40 mg/kg ip, 30 min before test, vs vehicle, FIG. 1) is reported as “failed to produce a statistically significant antinociceptive effect”.
Turning to `Cc1cccc([C@H](C)c2cnc[nH]2)c1C` [dexmedetomidine], in the experiment on male Swiss CD-1 mice [1] (dexmedetomidine alone 0.01 mg/kg s.c.), the “analgesic effect (latency to hind paw licking)” value was “not effective compared to control group”.
Regarding `N=C(N)NC(=O)Cc1c(Cl)cccc1Cl` [guanfacine], the “analgesic effect (latency to hind paw licking)” value in the experiment with male Swiss CD-1 mice [1] (guanfacine alone 5 mg/kg s.c.) is “not effective compared to control group”. Also, the “analgesic effect (tail withdrawal latency)” value with male Swiss CD-1 mice [2] (guanfacine alone 1.25 mg/kg s.c., vs vehicle, FIG. 3) is on record as “not effective compared to vehicle”.
